Broadly, the IC50 is the concentration that inhibits the measured activity by half. A high value points to a need for much substance. By Ki is commonly meant a measure of affinity in units of concentration, obtained from inhibition or displacement. The low end stands for tighter binding, the high end for weaker binding.

Some targets named below: Carbonic anhydrase 2 (Homo sapiens, UniProt P00918); Carbonic anhydrase 9 (Homo sapiens, UniProt Q16790); Carbonic anhydrase 12 (Homo sapiens, UniProt O43570); Carbonic anhydrase 13 (Mus musculus, UniProt Q9D6N1); Carbonic anhydrase 1 (Homo sapiens, UniProt P00915); Carbonic anhydrase 3 (Homo sapiens, UniProt P07451); Carbonic anhydrase 6 (Homo sapiens, UniProt P23280); Carbonic anhydrase 7 (Homo sapiens, UniProt P43166); Carbonic anhydrase 14 (Homo sapiens, UniProt Q9ULX7); Carbonic anhydrase 4 (Homo sapiens, UniProt P22748).

Another assay has as its target T1, Carbonic anhydrase 15 (Mus musculus, UniProt Q99N23).
T1 sequence (Q99N23 whole entry): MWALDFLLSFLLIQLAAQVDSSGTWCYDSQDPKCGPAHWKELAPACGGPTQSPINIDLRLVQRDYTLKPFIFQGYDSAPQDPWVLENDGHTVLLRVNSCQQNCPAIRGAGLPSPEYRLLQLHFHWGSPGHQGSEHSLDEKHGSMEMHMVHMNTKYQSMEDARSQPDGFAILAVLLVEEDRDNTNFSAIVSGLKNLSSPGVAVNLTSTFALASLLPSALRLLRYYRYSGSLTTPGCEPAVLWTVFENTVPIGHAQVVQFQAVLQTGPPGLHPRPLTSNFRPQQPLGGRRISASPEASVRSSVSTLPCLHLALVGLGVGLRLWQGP

Assay [1] has as its target Carbonic anhydrase 5A, mitochondrial (Homo sapiens, UniProt P35218).
The target in assay [2] is Carbonic anhydrase 5B, mitochondrial (Homo sapiens, UniProt Q9Y2D0).
Carbonic anhydrase 5B, mitochondrial, sequence (Q9Y2D0 whole entry): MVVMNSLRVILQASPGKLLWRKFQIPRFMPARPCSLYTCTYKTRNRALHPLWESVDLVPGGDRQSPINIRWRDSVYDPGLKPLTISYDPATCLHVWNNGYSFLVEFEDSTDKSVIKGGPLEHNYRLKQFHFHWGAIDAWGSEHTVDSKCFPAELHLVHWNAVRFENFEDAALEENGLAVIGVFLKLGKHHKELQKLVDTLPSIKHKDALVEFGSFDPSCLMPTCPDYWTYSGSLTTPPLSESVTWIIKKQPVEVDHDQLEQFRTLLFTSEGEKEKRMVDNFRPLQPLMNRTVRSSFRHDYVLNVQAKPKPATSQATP

Carbonic anhydrase 14, sequence (Q9ULX7 whole entry): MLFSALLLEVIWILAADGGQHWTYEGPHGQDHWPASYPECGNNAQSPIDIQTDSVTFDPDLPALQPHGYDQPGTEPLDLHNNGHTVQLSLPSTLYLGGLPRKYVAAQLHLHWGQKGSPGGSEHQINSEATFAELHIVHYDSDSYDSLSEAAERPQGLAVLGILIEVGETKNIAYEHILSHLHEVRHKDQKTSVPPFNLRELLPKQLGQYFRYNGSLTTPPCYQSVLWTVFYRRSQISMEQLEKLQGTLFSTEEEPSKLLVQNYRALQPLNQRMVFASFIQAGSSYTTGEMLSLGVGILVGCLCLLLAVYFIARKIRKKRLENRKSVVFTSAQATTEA
Carbonic anhydrase 12, sequence (O43570 whole entry): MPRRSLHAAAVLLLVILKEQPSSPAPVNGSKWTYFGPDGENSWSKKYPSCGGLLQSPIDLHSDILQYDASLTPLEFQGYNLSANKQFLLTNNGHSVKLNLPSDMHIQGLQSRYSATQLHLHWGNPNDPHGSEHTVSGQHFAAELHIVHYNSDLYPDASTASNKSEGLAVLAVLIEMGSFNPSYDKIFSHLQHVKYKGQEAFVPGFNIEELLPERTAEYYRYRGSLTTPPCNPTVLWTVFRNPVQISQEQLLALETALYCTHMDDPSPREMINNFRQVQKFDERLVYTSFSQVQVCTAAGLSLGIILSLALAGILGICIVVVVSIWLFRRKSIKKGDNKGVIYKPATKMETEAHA
Carbonic anhydrase 3, sequence (P07451 whole entry): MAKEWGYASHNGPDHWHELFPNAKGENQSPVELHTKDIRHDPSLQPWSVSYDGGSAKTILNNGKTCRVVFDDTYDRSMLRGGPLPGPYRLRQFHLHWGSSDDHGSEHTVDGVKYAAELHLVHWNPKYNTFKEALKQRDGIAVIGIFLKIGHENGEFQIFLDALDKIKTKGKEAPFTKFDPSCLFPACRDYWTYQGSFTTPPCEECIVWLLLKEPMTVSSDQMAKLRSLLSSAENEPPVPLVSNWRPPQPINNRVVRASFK
Carbonic anhydrase 6, sequence (P23280 whole entry): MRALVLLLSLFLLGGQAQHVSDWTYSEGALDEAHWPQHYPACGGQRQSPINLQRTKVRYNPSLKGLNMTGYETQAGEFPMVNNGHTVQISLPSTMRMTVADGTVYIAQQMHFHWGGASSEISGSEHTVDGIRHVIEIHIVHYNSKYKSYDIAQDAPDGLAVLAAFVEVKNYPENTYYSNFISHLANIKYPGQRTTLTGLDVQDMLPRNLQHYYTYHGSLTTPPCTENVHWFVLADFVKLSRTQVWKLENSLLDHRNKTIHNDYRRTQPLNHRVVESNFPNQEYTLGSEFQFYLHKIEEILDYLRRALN
Carbonic anhydrase 13, sequence (Q9D6N1 whole entry): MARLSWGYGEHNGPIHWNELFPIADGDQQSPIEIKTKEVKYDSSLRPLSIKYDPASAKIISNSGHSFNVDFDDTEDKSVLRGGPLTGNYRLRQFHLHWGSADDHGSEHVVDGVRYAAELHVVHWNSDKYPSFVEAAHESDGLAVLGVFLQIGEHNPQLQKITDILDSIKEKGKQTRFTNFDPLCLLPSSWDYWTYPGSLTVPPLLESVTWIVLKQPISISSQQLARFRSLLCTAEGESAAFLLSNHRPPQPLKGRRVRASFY
Carbonic anhydrase 5A, mitochondrial, sequence (P35218 whole entry): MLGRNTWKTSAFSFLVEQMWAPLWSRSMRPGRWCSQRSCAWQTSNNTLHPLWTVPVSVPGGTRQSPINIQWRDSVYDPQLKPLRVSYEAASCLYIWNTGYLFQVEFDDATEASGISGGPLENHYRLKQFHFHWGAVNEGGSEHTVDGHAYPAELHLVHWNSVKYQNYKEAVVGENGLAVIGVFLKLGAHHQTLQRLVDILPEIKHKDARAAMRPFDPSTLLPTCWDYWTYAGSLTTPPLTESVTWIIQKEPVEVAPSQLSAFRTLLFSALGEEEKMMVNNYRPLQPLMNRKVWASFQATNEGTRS
Carbonic anhydrase 1, sequence (P00915 whole entry): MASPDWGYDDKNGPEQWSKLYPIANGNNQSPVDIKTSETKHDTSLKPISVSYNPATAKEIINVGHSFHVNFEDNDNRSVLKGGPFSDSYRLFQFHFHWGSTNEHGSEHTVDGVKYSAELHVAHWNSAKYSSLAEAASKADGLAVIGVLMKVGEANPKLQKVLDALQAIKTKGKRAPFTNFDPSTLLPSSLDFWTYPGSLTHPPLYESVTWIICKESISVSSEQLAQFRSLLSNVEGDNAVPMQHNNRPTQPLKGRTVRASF
Carbonic anhydrase 7, sequence (P43166 whole entry): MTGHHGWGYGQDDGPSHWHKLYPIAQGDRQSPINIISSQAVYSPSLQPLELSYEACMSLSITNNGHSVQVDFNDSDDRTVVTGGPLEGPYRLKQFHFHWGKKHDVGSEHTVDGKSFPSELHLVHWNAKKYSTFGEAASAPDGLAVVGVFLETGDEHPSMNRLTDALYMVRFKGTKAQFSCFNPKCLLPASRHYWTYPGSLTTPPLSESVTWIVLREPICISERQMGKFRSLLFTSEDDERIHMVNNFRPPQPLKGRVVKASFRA
Carbonic anhydrase 4, sequence (P22748 whole entry): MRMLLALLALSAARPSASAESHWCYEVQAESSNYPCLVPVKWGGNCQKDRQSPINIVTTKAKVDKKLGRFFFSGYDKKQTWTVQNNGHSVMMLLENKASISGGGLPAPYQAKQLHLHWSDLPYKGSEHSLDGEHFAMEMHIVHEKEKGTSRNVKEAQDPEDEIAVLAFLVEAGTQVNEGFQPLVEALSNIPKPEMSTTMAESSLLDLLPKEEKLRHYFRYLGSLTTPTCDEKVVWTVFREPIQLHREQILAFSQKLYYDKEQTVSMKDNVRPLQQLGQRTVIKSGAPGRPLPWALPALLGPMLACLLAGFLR

On Carbonic anhydrase 2, `C#CCNc1nc(Nc2ccc(S(N)(=O)=O)cc2)ncc1Br` displayed an IC50 of 0.331 µM.
In the case of `COc1cc(O)c(/C=C\C(=O)O)cc1[C@@H](O)CC(C)C`, the IC50 on Carbonic anhydrase 9 is 54.5 µM; against Carbonic anhydrase 12, 48.6 µM; on Carbonic anhydrase 13, 0.79 µM; against Carbonic anhydrase 15, 93.1 µM; on Carbonic anhydrase 1, 0.078 µM; against Carbonic anhydrase 3, > 0.01 µM. The IC50 stood at 9.6 µM in assay [1]; 17.7 µM in [2]; 35.7 µM against Carbonic anhydrase 6; 27.9 µM against Carbonic anhydrase 7; 0.78 µM on Carbonic anhydrase 14.
As for `Cc1cn(-c2cc(NC(=O)c3ccc(C)c(Nc4nccc(-c5cccnc5)n4)c3)cc(C(F)(F)F)c2)cn1` [NILOTINIB], the inhibition constant (Ki) stood at 0.0419 µM at Carbonic anhydrase 9; 0.302 µM on Carbonic anhydrase 12; 4.67 µM at Carbonic anhydrase 13; 0.079 µM on Carbonic anhydrase 15; 0.0293 µM at Carbonic anhydrase 1; 0.443 µM at Carbonic anhydrase 3. The inhibitory constant (Ki) on Carbonic anhydrase 4 is 0.446 µM; in [1] it was 5.49 µM; in assay [2], 14.9 µM; on Carbonic anhydrase 6, 0.461 µM; on Carbonic anhydrase 14, 0.223 µM.

Source of the values: ChEMBL document CHEMBL1152378 (Bioorg Med Chem Lett, 2009).
